According to PubChem BioAssay AID2060613 (Molecular Pharmacology Branch, DTP, NCI, 2025):
Values joined by “and” are separate entries in the source; they are usually repeats but may differ in a detail not shown here. Identical values can stand only once.

Test system: 233499-124-R-J3-PDC complex spheroid viability
Assay: Anticancer human tumor 233499-124-R-J3-PDC patient-derived colon adenocarcinoma cell line growth inhibition [CLK]
Details: for viability, T/C: stronger effect = lower value
Summary of the method: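 Multi-cell-type spheroids combined patient-derived tumor cells with HUVEC endothelial cells and human mesenchymal stem cells. Paired agents were dosed in half-log steps down from about clinical Cmax, or from 10 microM where Cmax was unknown.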
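Also: spheroids exposed to the drug combinations for seven days.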
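For viability, T/C in this document: percent viability relative to DMSO vehicle control wells taken as 100%.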

With `O=c1[nH]cc(F)c(=O)[nH]1` the viability, T/C (compound 0.0316 µM) was 94.9% and 97.3%, the viability, T/C (compound 0.1 µM) was 106% and 96% and the viability, T/C (compound 0.316 µM) was 55.2% and 69.3%. For the same compound, the viability, T/C (compound 1 µM) was 50.6% and 37.5%, the viability, T/C (compound 3.16 µM) was 31.1% and 20.9% and the viability, T/C (compound 10 µM) was 30.8% and 23.1%. The IC50 (curve of compound) was 444 nM and 625 nM.
In the case of `Nc1ccccc1NC(=O)c1ccc(CNC(=O)OCc2cccnc2)cc1` + CNC(=O)c1ccc(Nc2nc(OC3CCCC3)c3c(-c4ccc5nc(C)oc5c4)c[nH]c3n2)c(OC)c1, the IC50 (curve of first compound, second compound 0.0316 µM) is reported as 1830 nM, the IC50 (curve of first compound, second compound 0.1 µM) is reported as 731 nM and the IC50 (curve of first compound, second compound 0.316 µM) is reported as 233 nM. For the same compound, the IC50 (curve of first compound, second compound 1 µM) was 199 nM, the IC50 (curve of first compound, second compound 3.16 µM) was 443 nM and the IC50 (curve of first compound, second compound 10 µM) was 157 nM. The viability, T/C (second compound 0.0316 µM, first compound 0.0316 µM) was 96.7%, the viability, T/C (second compound 0.0316 µM, first compound 0.1 µM) was 86% and the viability, T/C (second compound 0.0316 µM, first compound 0.316 µM) was 91.8%. It also gave a viability, T/C (second compound 0.0316 µM, first compound 1 µM) of 79.7%, a viability, T/C (second compound 0.0316 µM, first compound 3.16 µM) of 23.1% and a viability, T/C (second compound 0.0316 µM, first compound 10 µM) of 0.94%. For the same compound, the viability, T/C (second compound 0.1 µM, first compound 0.0316 µM) was 64.9%, the viability, T/C (second compound 0.1 µM, first compound 0.1 µM) was 67.4% and the viability, T/C (second compound 0.1 µM, first compound 0.316 µM) was 63.6%. The viability, T/C (second compound 0.1 µM, first compound 1 µM) was 44.8%, the viability, T/C (second compound 0.1 µM, first compound 3.16 µM) was 9.08% and the viability, T/C (second compound 0.1 µM, first compound 10 µM) was 0.5%. For the same compound, the viability, T/C (second compound 0.316 µM, first compound 0.0316 µM) was 77%, the viability, T/C (second compound 0.316 µM, first compound 0.1 µM) was 66.7% and the viability, T/C (second compound 0.316 µM, first compound 0.316 µM) was 43.6%. For the same compound, the viability, T/C (second compound 0.316 µM, first compound 1 µM) was 20%, the viability, T/C (second compound 0.316 µM, first compound 3.16 µM) was 4.82% and the viability, T/C (second compound 0.316 µM, first compound 10 µM) was 0.23%. It also gave a viability, T/C (second compound 1 µM, first compound 0.0316 µM) of 74.6%, a viability, T/C (second compound 1 µM, first compound 0.1 µM) of 70.1% and a viability, T/C (second compound 1 µM, first compound 0.316 µM) of 35.7%. The viability, T/C (second compound 1 µM, first compound 1 µM) was 15.2%, the viability, T/C (second compound 1 µM, first compound 3.16 µM) was 2.15% and the viability, T/C (second compound 1 µM, first compound 10 µM) was 0.09%. For the same compound, the viability, T/C (second compound 3.16 µM, first compound 0.0316 µM) was 71.1%, the viability, T/C (second compound 3.16 µM, first compound 0.1 µM) was 65.6% and the viability, T/C (second compound 3.16 µM, first compound 0.316 µM) was 67.2%. It also gave a viability, T/C (second compound 3.16 µM, first compound 1 µM) of 8.74%, a viability, T/C (second compound 3.16 µM, first compound 3.16 µM) of 1.22% and a viability, T/C (second compound 3.16 µM, first compound 10 µM) of 0.1%. The viability, T/C (second compound 10 µM, first compound 0.0316 µM) was 70.8%, the viability, T/C (second compound 10 µM, first compound 0.1 µM) was 50.4% and the viability, T/C (second compound 10 µM, first compound 0.316 µM) was 44.5%. The viability, T/C (second compound 10 µM, first compound 1 µM) was 20.6%, the viability, T/C (second compound 10 µM, first compound 3.16 µM) was 1.09% and the viability, T/C (second compound 10 µM, first compound 10 µM) was 0.15%.
For `CCN1CCN(Cc2ccc(Nc3ncc(F)c(-c4cc(F)c5nc(C)n(C(C)C)c5c4)n3)nc2)CC1`, the viability, T/C (compound 0.00316 µM) was 100% and 102%, the viability, T/C (compound 0.01 µM) was 86.8% and 96.5% and the viability, T/C (compound 0.0316 µM) was 98.5% and 88%. For the same compound, the viability, T/C (compound 0.1 µM) was 93.8% and 104%, the viability, T/C (compound 0.316 µM) was 94.1% and 98.2% and the viability, T/C (compound 1 µM) was 102% and 64.3%. For the same compound, the IC50 (curve of compound) was > 1000 nM.
